Test [1] concerns TA[Q] (DNA, G4) TAGGGTTAGGGTTAGGGTTAGGG
Briefly: fluorescence titration. The following applies: K+ 0.1 M; 25 mM Tris-HCl pH 7.5, 1 mM EDTA, 18 °C; 0.5 μM compound.

Test [2] concerns rUA[Q] (RNA, G4) UAGGGUUAGGGUUAGGGUUAGGG
As to the kind of experiment: fluorescence titration. The following applies: K+ 0.1 M; 25 mM Tris-HCl pH 7.5, 1 mM EDTA, 18 °C (general conditions).

As to `COc1cc2c(cc1OC)-c1cc3ccc(OC)c(OC)c3c[n+]1CC2`, the K11 result in test [1] is reported as “(4.1 ± 0.4) × 10^5 M^-1”. A word on the Kd: it is the concentration at which binding is half-saturated. Compound `COc1cc2c(cc1OC)-c1cc3ccc4c(c3c[n+]1CC2)OCO4` yielded a Kd in test [1] of 37 ± 8 nM. In addition, in test [2], the binding constant entry is reported as “(1.2 ± 0.2) × 10^6 M^-1”. Regarding `COc1ccc2cc3[n+](cc2c1OC)CCc1cc2c(cc1-3)OCO2`, the K11 entry in test [1] is listed as “(4.1 ± 0.4) × 10^5 M^-1”. For the compound `Cc1c2[n+](cc3c4c(ccc13)OCO4)CCc1cc3c(cc1-2)OCO3`, the K11 result in test [1] was “(5.1 ± 0.4) × 10^5 M^-1”. Still for that read-out and setting: for `c1c2c(cc3c1OCO3)-c1cc3ccc4c(c3c[n+]1CC2)OCO4` the value was “(1.4 ± 0.5) × 10^6 M^-1”.

Source of the values: publication PMC5515279 (2014).
